Test results as given in patent publication US20240351997A1, “NOVEL PARP7 INHIBITOR AND USE THEREOF” (SHANGHAI QILU PHARMACEUTICAL RESEARCH AND DEVELOPMENT …, priority 2021, published 2024).

Molecular target: PARP7 (Homo sapiens (Human), UniProt Q7Z3E1)
Assay: In vitro enzymology experiment of PARP7 (enzymatic inhibition)
Assay type: biochemical
Experimental: II. In Vitro Enzymology Experiment of PARP2, 3, 5A, 5B, 7, 12, and 15
1. Preparation of 384-well histone-coated plate: 25 μL of histone solution was added to each well, and the plate was incubated overnight at 4° C.
2. Preparation of PBST buffer, blocking buffer, and assay buffer
3. The 384-well histone-coated plate was washed three times with PBST buffer. The plate was blocked by 50 μL of blocking buffer for 1 hour at room temperature. The plate was then washed three times with PBST buffer.
2000× compound was prepared in a 96-well source plate. 50 nL of the compound was transferred from the source plate to a 96-well intermediate plate, and 39.95 μL of assay buffer was added to each well. The plate was shaken well and centrifuged at 1000 rpm for 1 minute.
5 μL of compound DMSO solution was transferred to each well.
An enzyme mixture was incubated at 25° C. for 10 minutes.
10 μL of the enzyme mixture was added, and incubated with the compound at room temperature for 10 minutes.
10 μL of assay buffer was added to the negative control well of the assay plate.
The plate was then washed three times with PBST buffer.
25 μL of Stre-HRP was added.
The plate was incubated at room temperature for 1 hour and washed three times with PBS buffer.
25 μL of QuantaRed Enhancer mix was added. The plate was incubated for 10 minutes.
2.5 μL of QuantaRed Stop Solution was added to terminate the peroxidase reaction, and the plate was shaken for 10 to 30 seconds.
7. Paradigm was used to read the plate immediately to detect the readings at Ex550/Em620.
Using equation (1) to fit the data in Excel to obtain inhibition values
Using equation (2) to fit the data in XL-Fit to obtain IC50 values
Y is the percentage of inhibition, and X is the compound concentration.

Sequence of PARP7 (Q7Z3E1 whole entry): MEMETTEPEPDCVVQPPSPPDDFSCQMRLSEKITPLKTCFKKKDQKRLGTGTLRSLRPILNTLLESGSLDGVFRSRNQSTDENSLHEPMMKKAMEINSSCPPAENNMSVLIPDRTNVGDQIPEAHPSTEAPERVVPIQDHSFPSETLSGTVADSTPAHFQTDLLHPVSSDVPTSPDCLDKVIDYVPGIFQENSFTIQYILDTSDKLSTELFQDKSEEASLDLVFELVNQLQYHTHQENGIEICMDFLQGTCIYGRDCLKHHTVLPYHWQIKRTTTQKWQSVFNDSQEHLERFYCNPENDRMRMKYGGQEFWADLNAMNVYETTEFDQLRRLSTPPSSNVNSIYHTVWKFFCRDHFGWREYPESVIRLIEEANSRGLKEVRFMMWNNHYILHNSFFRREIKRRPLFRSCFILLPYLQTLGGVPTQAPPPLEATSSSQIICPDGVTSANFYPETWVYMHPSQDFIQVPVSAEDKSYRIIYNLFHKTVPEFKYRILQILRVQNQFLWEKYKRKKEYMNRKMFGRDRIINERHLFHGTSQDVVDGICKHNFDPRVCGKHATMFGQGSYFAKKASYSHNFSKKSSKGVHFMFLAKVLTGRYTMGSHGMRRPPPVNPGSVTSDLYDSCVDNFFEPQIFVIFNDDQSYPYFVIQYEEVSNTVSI

| SMILES | IC50 [nM] |
| --- | --- |
| O=C(CCNc1c[nH]c(=O)c(C(F)(F)F)c1)N1CCN(c2ncc(C(F)(F)F)cn2)CC1 [Example 31, 5-((3-Oxo-3-(4-(5-(trifluoromethyl)pyrimidin-2-yl)piperazin-1-yl)propyl)amino)-3-(trifluoromethyl)pyridin-2(1H)-one] | 1.19 |
| O=C(O[C@H]1CCC[C@H]1c1c[nH]c(=O)c(C(F)(F)F)c1)N1CCN(c2ncc(C(F)(F)F)cn2)CC1 [Example 82, (1S,2S)-2-(6-Oxo-5-(trifluoromethyl)-1,6-dihydropyridin-3-yl)cyclopentyl 4-(5-(trifluoromethyl)pyrimidin-2-yl)piperazine-1-carboxylate] | 1.44 |
| C[C@H]1CN(c2ncc(C(F)(F)F)cn2)CCN1C(=O)OCCc1c[nH]c(=O)c(C(F)(F)F)c1 [Example 108, 2-(6-Oxo-5-(trifluoromethyl)-1,6-dihydropyridin-3-yl)ethyl (S)-2-methyl-4-(5-(trifluoromethyl)pyrimidin-2-yl)piperazine-1-carboxylate] | 0.63 |
| C[C@@H]1CN(c2ncc(C(F)(F)F)cn2)[C@@H](C)CN1C(=O)O[C@@H](C)Cc1c[nH]c(=O)c(C(F)(F)F)c1 [Example 155, (S)-1-(6-Oxo-5-(trifluoromethyl)-1,6-dihydropyridin-3-yl)propan-2-yl (2R,5S)-2,5-dimethyl-4-(5-(trifluoromethyl)pyrimidin-2-yl)piperazine-1-carboxylate] | 0.59 |
| O=C(CCOc1c[nH]c(=O)c(C(F)(F)F)c1)N1CCN(c2ncc(C(F)(F)F)cn2)CC1 [Example 17, 5-(3-Oxo-3-(4-(5-(trifluoromethyl)pyrimidin-2-yl)piperazin-1-yl)propoxy)-3-(trifluoromethyl)pyridin-2(1H)-one] | 2.79 |
| O=C(CCOC[C@@H]1CCCN1c1c[nH]c(=O)c(C(F)(F)F)c1)N1CCN(c2ncc(C(F)(F)F)cn2)CC1 [Example 9, (S)-5-(2-((3-Oxo-3-(4-(5-(trifluoromethyl)pyrimidin-2-yl)piperazin-1-yl)propoxy)methyl)pyrrolidin-1-yl)-3-(trifluoromethyl)pyridin-2(1H)-one] | 7.6 |
| CNC(=O)c1ccc(N2CCN(C(=O)O[C@@H](C)Cc3c[nH]c(=O)c(C(F)(F)F)c3)CC2)cn1 [Example 88, (S)-1-(6-Oxo-5-(trifluoromethyl)-1,6-dihydropyridin-3-yl)propan-2-yl 4-(6-(methylcarbamoyl)pyridin-3-yl)piperazine-1-carboxylate] | 1.98 |
| C[C@@H](Cc1c[nH]c(=O)c(C(F)(F)F)c1)OC(=O)N1CCN(C(=O)C2CC2)CC1 [Example 90, (S)-1-(6-Oxo-5-(trifluoromethyl)-1,6-dihydropyridin-3-yl)propan-2-yl 4-(cyclopropanecarbonyl)piperazine-1-carboxylate] | 1.08 |
| CC[C@H]1CN(c2ncc(C(F)(F)F)cn2)CCN1C(=O)OCCc1c[nH]c(=O)c(C(F)(F)F)c1 [Example 121, 2-(6-Oxo-5-(trifluoromethyl)-1,6-dihydropyridin-3-yl)ethyl (S)-2-ethyl-4-(5-(trifluoromethyl)pyrimidin-2-yl)piperazine-1-carboxylate] | 0.54 |
| O=C(OCCc1c[nH]c(=O)c(C(F)(F)F)c1)N1CCN(c2cnc(C(F)(F)F)cn2)CC1 [Example 127, 2-(6-Oxo-5-(trifluoromethyl)-1,6-dihydropyridin-3-yl)ethyl 4-(5-(trifluoromethyl)pyrazin-2-yl)piperazine-1-carboxylate] | 0.49 |
| C[C@@H]1CN(C(=O)OCCc2c[nH]c(=O)c(C(F)(F)F)c2)C[C@@H](C)N1c1ncc(C(F)(F)F)cn1 [Example 149, 2-(6-Oxo-5-(trifluoromethyl)-1,6-dihydropyridin-3-yl)ethyl (3R,5R)-3,5-dimethyl-4-(5-(trifluoromethyl)pyrimidin-2-yl)piperazine-1-carboxylate] | 0.64 |
| O=C(OCCc1c[nH]c(=O)c(C(F)(F)F)c1)N1CCN(c2ncc(C(F)(F)F)cn2)C[C@@H]1CO [Example 107, 2-(6-Oxo-5-(trifluoromethyl)-1,6-dihydropyridin-3-yl)ethyl (R)-2-(hydroxymethyl)-4-(5-(trifluoromethyl)pyrimidin-2-yl)piperazine-1-carboxylate] | 0.72 |
| C[C@@H](Cc1c[nH]c(=O)c(C(F)(F)F)c1)OC(=O)N[C@H]1CCN(c2ncc(C(F)(F)F)cn2)C1 [Example 51, (S)-1-(6-Oxo-5-(trifluoromethyl)-1,6-dihydropyridin-3-yl)propan-2-yl ((S)-1-(5-(trifluoromethyl)pyrimidin-2-yl)pyrrolidin-3-yl)carbamate] | 1.34 |
| CC[C@@H](Cc1c[nH]c(=O)c(C(F)(F)F)c1)OC(=O)N1CCN(c2ncc(C(F)(F)F)cn2)CC1 [Example 116, (S)-1-(6-Oxo-5-(trifluoromethyl)-1,6-dihydropyridin-3-yl) butan-2-yl 4-(5-(trifluoromethyl)pyrimidin-2-yl)piperazine-1-carboxylate] | 0.81 |
| C[C@@H]1CN(C(=O)O[C@@H](C)Cc2c[nH]c(=O)c(C(F)(F)F)c2)CCN1c1ncc(C(F)(F)F)cn1 [Example 94, (S)-1-(6-Oxo-5-(trifluoromethyl)-1,6-dihydropyridin-3-yl)propan-2-yl (R)-3-methyl-4-(5-(trifluoromethyl)pyrimidin-2-yl)piperazine-1-carboxylate] | 0.68 |
| Cc1cnc(N2CCN(C(=O)OCCc3c[nH]c(=O)c(C(F)(F)F)c3)CC2)nc1 [Example 105] | 0.92 |
| CC(Cc1c[nH]c(=O)c(C(F)(F)F)c1)OC(=O)N1CCN(c2ncc(Br)cn2)CC1 (stereo not drawn) [Example 63, 1-(6-Oxo-5-(trifluoromethyl)-1,6-dihydropyridin-3-yl)propan-2-yl 4-(5-bromopyrimidin-2-yl)piperazine-1-carboxylate] | 3.12 |
| CC(=O)c1cnc(N2CCN(C(=O)O[C@@H](C)Cc3c[nH]c(=O)c(C(F)(F)F)c3)CC2)nc1 [Example 120, (S)-1-(6-Oxo-5-(trifluoromethyl)-1,6-dihydropyridin-3-yl)propan-2-yl 4-(5-acetylpyrimidin-2-yl)piperazine-1-carboxylate] | 0.66 |
| C[C@@H](Cc1c[nH]c(=O)c(C(F)(F)F)c1)OC(=O)N1CCN(c2ncc(S(C)(=O)=O)cn2)CC1 [Example 101, (S)-1-(6-Oxo-5-(trifluoromethyl)-1,6-dihydropyridin-3-yl)propan-2-yl 4-(5-(methylsulfonyl)pyrimidin-2-yl)piperazine-1-carboxylate] | 0.67 |

Next, values leading:

| IC50 [nM] | SMILES |
| --- | --- |
| 2.26 | CC(Cc1c[nH]c(=O)c(C(F)(F)F)c1)OC(=O)N1CCN(c2ncc(C#N)cn2)CC1 (stereo not drawn) [Example 45, 1-(6-Oxo-5-(trifluoromethyl)-1,6-dihydropyridin-3-yl)propan-2-yl 4-(5-cyanopyrimidine-2-yl)piperazine-1-carboxylate] |
| 0.71 | C[C@@H]1CN(c2ncc(C(F)(F)F)cn2)C[C@H](C)N1C(=O)OCCc1c[nH]c(=O)c(C(F)(F)F)c1 [Example 150, 2-(6-Oxo-5-(trifluoromethyl)-1,6-dihydropyridin-3-yl)ethyl (2S,6R)-2,6-dimethyl-4-(5-(trifluoromethyl)pyrimidin-2-yl)piperazine-1-carboxylate] |
| 0.38 | O=C(OC[C@H]1CCCN1c1c[nH]c(=O)c(C(F)(F)F)c1)N1CCN(c2ncc(C(F)(F)F)cn2)CC1 [Example 36, (R)-(1-(6-Oxo-5-(trifluoromethyl)-1,6-dihydropyridin-3-yl)pyrrolidin-2-yl)methyl 4-(5-(trifluoromethyl)pyrimidin-2-yl)piperazine-1-carboxylate] |
| 0.9 | O=C(CCCc1c[nH]c(=O)c(C(F)(F)F)c1)N1CCN(c2ncc(C(F)(F)F)cn2)CC1 [Example 37, 5-(4-Oxo-4-(4-(5-(trifluoromethyl)pyrimidin-2-yl)piperazin-1-yl)butyl)-3-(trifluoromethyl)pyridin-2(1H)-one] |
| 5.83 | O=C(Cc1cc(C(F)(F)F)c(=O)[nH]n1)NCC(=O)N1CCN(c2ncc(C(F)(F)F)cn2)CC1 [Example 5, N-(2-Oxo-2-(4-(5-(trifluoromethyl)pyrimidin-2-yl)piperazin-1-yl)ethyl)-2-(6-oxo-5-(trifluoromethyl)-1,6-dihydropyridazin-3-yl)acetamide] |
| 0.78 | C[C@@H]1CN(c2ncc(C(F)(F)F)cn2)CCN1C(=O)O[C@@H](C)Cc1c[nH]c(=O)c(C(F)(F)F)c1 [Example 91, (S)-1-(6-Oxo-5-(trifluoromethyl)-1,6-dihydropyridin-3-yl)propan-2-yl (R)-2-methyl-4-(5-(trifluoromethyl)pyrimidin-2-yl)piperazine-1-carboxylate] |
| 1.3 | C[C@@H]1CN(C(=O)O[C@@H](C)Cc2c[nH]c(=O)c(C(F)(F)F)c2)[C@@H](C)CN1c1ncc(C(F)(F)F)cn1 [Example 160, (S)-1-(6-Oxo-5-(trifluoromethyl)-1,6-dihydropyridin-3-yl)propan-2-yl (2S,5R)-2,5-dimethyl-4-(5-(trifluoromethyl)pyrimidin-2-yl)piperazine-1-carboxylate] |
| 0.78 | Cc1cc(C(F)(F)F)cnc1N1CCN(C(=O)OCCc2c[nH]c(=O)c(C(F)(F)F)c2)CC1 [Example 132, 2-(6-Oxo-5-(trifluoromethyl)-1,6-dihydropyridin-3-yl)ethyl 4-(3-methyl-5-(trifluoromethyl)pyridin-2-yl)piperazine-1-carboxylate] |
